The values below come from ChEMBL document CHEMBL1806470, “Synthesis and antiglycation potentials of bergenin derivatives” (Bioorg Med Chem Lett, 2011).

Data set [1] in a line: Antioxidant activity assessed as ABTS free radical scavenging activity.
Data set [2] in a line: Antiglycation activity assessed as inhibition of advanced glycation end product formation at 200 uM. It is filed as physicochemical.
For data set [3], the target named is T1, Albumin (Bos taurus, UniProt P02769). In words: Antiglycation activity in bovine serum albumin assessed as inhibition of fructosamines formation at 200 uM in presence of glucose. The conditions noted are these: cattle.
Data set [4] can be described thus: Antiglycation activity assessed as inhibition of advanced glycation end product formation. It is filed as physicochemical.
Data set [5] has as its target T1, Albumin. In words: Antiglycation activity in bovine serum albumin assessed as inhibition of fructosamines formation in presence of glucose.
Data set [6] is described as follows: Antiglycation activity assessed as inhibition of dicarbonyl compounds formation at 200 uM. It is filed as physicochemical.
Data set [7] is described as follows: Antiglycation activity assessed as inhibition of Schiff-base formation at 200 uM. Type of data set: physicochemical.
The nature of data set [8]: Antiglycation activity assessed as inhibition of dicarbonyl compounds formation. It is filed as physicochemical.
The nature of data set [9]: Antiglycation activity assessed as inhibition of Schiff-base formation. Type of data set: physicochemical.

T1 sequence (P02769 whole entry): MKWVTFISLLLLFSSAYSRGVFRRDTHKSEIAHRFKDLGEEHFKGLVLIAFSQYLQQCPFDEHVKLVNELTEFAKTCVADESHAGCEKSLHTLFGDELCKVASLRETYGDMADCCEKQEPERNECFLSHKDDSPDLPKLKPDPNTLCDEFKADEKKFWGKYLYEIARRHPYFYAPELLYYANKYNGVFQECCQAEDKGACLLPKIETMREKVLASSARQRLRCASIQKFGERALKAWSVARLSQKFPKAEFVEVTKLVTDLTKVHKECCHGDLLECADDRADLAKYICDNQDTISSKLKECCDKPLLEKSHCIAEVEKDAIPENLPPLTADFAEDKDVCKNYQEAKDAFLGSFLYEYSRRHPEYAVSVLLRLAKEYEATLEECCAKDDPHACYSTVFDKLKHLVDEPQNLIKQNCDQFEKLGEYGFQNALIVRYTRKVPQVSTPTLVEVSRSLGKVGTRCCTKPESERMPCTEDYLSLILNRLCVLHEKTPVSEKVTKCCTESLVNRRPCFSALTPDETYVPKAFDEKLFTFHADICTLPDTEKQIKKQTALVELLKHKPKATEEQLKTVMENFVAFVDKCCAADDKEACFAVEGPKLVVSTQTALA

Broadly, the IC50 is the concentration that inhibits the measured activity by half. For orientation: inhibition means the relative decrease from the control value, in per cent. In the case of `COc1c(O)cc2c(c1O)[C@@H]1O[C@H](COC(=O)c3ccccc3)[C@@H](O)[C@H](O)[C@H]1OC2=O`, the IC50 in [1] stood at 3.5 µM. The “inhibition (INH)” value in [2] is reported as “Not Active”. Further, on Albumin [3], the inhibition at 200 µM was 49.2%.

For `N=C(N)NN` [PIMAGEDINE], the “inhibition (INH)” value in [2] is 79.67%. Moreover, in data set [4], the concentration for half-maximal inhibition (IC50) was 88.9 µM.

In the case of `COc1c(O)cc2c(c1O)[C@@H]1O[C@H](COC(=O)c3cccc(O)c3O)[C@@H](O)[C@H](O)[C@H]1OC2=O`, the IC50 in data set [1] came to 1.7 µM; on Albumin [5], 322 µM; in [4], 60.8 µM; in [8], 8.95 µM; in data set [9], 76 µM. Further, the “inhibition (INH)” value is on record as 93.27% in [2], 97.77% in data set [6] and 97.86% in data set [7]. Further, the inhibition at 200 µM at Albumin [3] was determined as 26.2%.

As for `COc1cc(C(=O)OC[C@H]2O[C@H]3c4c(cc(O)c(OC)c4O)C(=O)O[C@@H]3[C@@H](O)[C@@H]2O)cc(OC)c1OC`, in data set [1], the 50% inhibitory concentration (IC50) amounted to 3.2 µM. Besides, the “inhibition (INH)” value in data set [2] is recorded as “Not Active”. Besides, at Albumin [3], the inhibition at 200 µM was 42.1%.

As to `COc1c(O)cc2c(c1O)[C@@H]1O[C@H](COC(=O)c3ccc([N+](=O)[O-])cc3)[C@@H](O)[C@H](O)[C@H]1OC2=O`, the IC50 in data set [1] amounted to 3.6 µM. Besides, in [2], the “inhibition (INH)” value is reported as “Not Active”. Besides, on Albumin [3], the inhibition at 200 µM came to 21.4%.

For `COc1c(O)cc2c(c1O)[C@@H]1O[C@H](COC(=O)c3cc(O)c(O)c(O)c3)[C@@H](O)[C@H](O)[C@H]1OC2=O`, the IC50 in data set [1] came to 1.5 µM; at Albumin [5] it was 184 µM; in data set [4], 12.3 µM; in [9], 9.06 µM. For the same compound, the figures for the “inhibition (INH)” value in data set [2], in [6] and in [7] were 83.62%, 102.22% and 95.96%, respectively. On Albumin [3], the inhibition at 200 µM turned out to be 22.2%.

For the compound `COc1c(O)cc2c(c1O)[C@@H]1O[C@H](CO)[C@@H](O)[C@H](O)[C@H]1OC2=O` [BERGENIN], the IC50 in data set [1] worked out at 2 µM; at Albumin [5], 164 µM; in [4], 187 µM; in [9] it was 0.00054 µM. The “inhibition (INH)” value in data set [2] is given as 75.69%; in data set [6], 102.66%; in [7] it was 109.4%. For the same compound, the inhibition at 200 µM on Albumin [3] was 20.6%.

For the compound `COc1ccc(C(=O)OC[C@H]2O[C@H]3c4c(cc(O)c(OC)c4O)C(=O)O[C@@H]3[C@@H](O)[C@@H]2O)c([N+](=O)[O-])c1`, the half-maximal inhibitory concentration (IC50) in data set [1] stood at 4.4 µM. For the same compound, in data set [2], the “inhibition (INH)” value is recorded as “Not Active”. The inhibition at 200 µM on Albumin [3] came to 17.5%.

Take `COc1c(O)cc2c(c1O)[C@@H]1O[C@H](COC(=O)/C=C/c3ccccc3)[C@@H](O)[C@H](O)[C@H]1OC2=O`: the half-maximal inhibitory concentration (IC50) in data set [1] amounted to 3 µM. Also, the “inhibition (INH)” value (in [2]; on Albumin [3] (200 µM)) was “Not Active” throughout.

For the compound `COc1cc(C(=O)OC[C@H]2O[C@H]3c4c(cc(O)c(OC)c4O)C(=O)O[C@@H]3[C@@H](O)[C@@H]2O)ccc1O`, the half-maximal inhibitory concentration (IC50) in [1] is 4.2 µM. For the same compound, the “inhibition (INH)” value in data set [2] is “Not Active”. The inhibition at 200 µM at Albumin [3] worked out at 36.5%.
